Source: ChEMBL document CHEMBL3745676, “Alkylamino derivatives of N-benzylpyrazine-2-carboxamide: synthesis and antimycobacterial evaluation” (Medchemcomm, 2015)
Converted amounts (≈) assume the structure as drawn. The source made the active and inactive calls. The rule behind the calls is not given here.

Tests used:
[1] = Lipophilicity, logK of the compound by RP-HPLC analysis; type: physicochemical
[2] = test system: Mycobacterium tuberculosis; assay: Antimycobacterial activity against Mycobacterium tuberculosis H37Rv CNCTC My 331/88 incubated for 10 to 14 days by microplate alamar blue assay; type: functional
Mycobacterium kansasii = assay: Antimycobacterial activity against Mycobacterium kansasii CNCTC My 235/80 incubated for 5 to 7 days by microplate alamar blue assay; type: functional
[3] = test system: Mycobacterium tuberculosis; assay: Inhibition of mycolic acid synthesis in [1,2-14C]-acetate-labelled Mycobacterium tuberculosis H37Ra at 5 ug/ml preincubated for 20 hrs followed by radiolabelling measured after 24 hrs by autoradiography; type: functional, organism-based
[4] = test system: Mycobacterium tuberculosis; assay: Effect on short chain fatty acids production in [1,2-14C]-acetate-labelled Mycobacterium tuberculosis H37Ra at 5 ug/ml preincubated for 20 hrs followed by radiolabelling measured after 24 hrs by autoradiography; type: functional, organism-based
[5] = Cytotoxicity against CRFK cells assessed as cell viability after 4 to 6 days by formazan-based MTS assay; set-up: species or system Felis catus; details: cat
[6] = Cytotoxicity against HEL cells assessed as cell viability after 4 to 6 days by microscopic analysis; type: cell-based; details: human
[7] = Cytotoxicity against human HeLa cells assessed as cell viability after 4 to 6 days by microscopic analysis; type: cell-based
[8] = Cytotoxicity against African green monkey Vero cells assessed as cell viability after 4 to 6 days by microscopic analysis; type: cell-based; details: chlorocebus sabaeus
[9] = Cytotoxicity against MDCK cells assessed as cell viability after 4 to 6 days by formazan-based MTS assay; set-up: species or system Canis lupus familiaris; details: dog
[10] = Cytotoxicity against MDCK cells assessed as cell viability after 4 to 6 days by microscopic analysis; type: cell-based, Canis lupus familiaris; details: dog
Influenza A virus [11] = assay: Antiviral activity against Influenza A virus (A/Puerto Rico/8/(H1N1)) assessed as inhibition of virus-induced cytopathic effect after 3 to 6 days by formazan-based MTS assay; type: functional, organism-based
Mycobacterium avium [12] = assay: Antimycobacterial activity against Mycobacterium avium CNCTC My 80/72 after 5 days by microplate alamar blue assay; type: functional; details: CNCTC My 80/72, 120 h
Mycobacterium avium [13] = assay: Antimycobacterial activity against Mycobacterium avium CNCTC My 152/73 after 5 days by microplate alamar blue assay; type: functional; details: CNCTC My 152/73, 120 h
Escherichia coli = assay: Antibacterial activity against Escherichia coli CCM 4517 after 24 to 48 hrs by broth microdilution method; type: functional
Pseudomonas aeruginosa = assay: Antibacterial activity against Pseudomonas aeruginosa CCM 1961 after 24 to 48 hrs by broth microdilution method; type: functional
Klebsiella pneumoniae [14] = assay: Antibacterial activity against Klebsiella pneumoniae D 11750/08 after 24 to 48 hrs by broth microdilution method; type: functional
Klebsiella pneumoniae [15] = assay: Antibacterial activity against ESBL positive Klebsiella pneumoniae J 14368/08 after 24 to 48 hrs by broth microdilution method; type: functional
Candida albicans = assay: Antifungal activity against Candida albicans ATCC 44859 after 24 to 48 hrs by broth microdilution method; type: functional
Candida tropicalis = assay: Antifungal activity against Candida tropicalis 156 after 24 to 48 hrs by broth microdilution method; type: functional
Pichia kudriavzevii = assay: Antifungal activity against Candida krusei E28 after 24 to 48 hrs by broth microdilution method; type: functional
Nakaseomyces glabratus = assay: Antifungal activity against Candida glabrata 20/I after 24 to 48 hrs by broth microdilution method; type: functional
Trichosporon asahii = assay: Antifungal activity against Trichosporon asahii 1188 after 24 to 48 hrs by broth microdilution method; type: functional
Aspergillus fumigatus = assay: Antifungal activity against Aspergillus fumigatus 231 after 24 to 48 hrs by broth microdilution method; type: functional
Lichtheimia corymbifera = assay: Antifungal activity against Lichtheimia corymbifera 272 after 24 to 48 hrs by broth microdilution method; type: functional
[16] = test system: Trichophyton mentagrophytes; assay: Antifungal activity against Trichophyton mentagrophytes 445 after 72 to 120 hrs by broth microdilution method; type: functional
Influenza A virus [17] = assay: Antiviral activity against Influenza A virus (A/Puerto Rico/8/(H1N1)) assessed as inhibition of virus-induced cytopathic effect after 3 to 6 days by microscopic analysis; type: functional, organism-based
[18] = test system: Respiratory syncytial virus; assay: Antiviral activity against Respiratory syncytial virus infecetd in human HeLa cells assessed as inhibition of virus replication after 3 to 6 days; type: functional, organism-based
[19] = test system: Mycobacterium tuberculosis; assay: Potency index, ratio of pyrazinamide MIC to compound MIC for Mycobacterium tuberculosis H37Rv CNCTC My 331/88; type: functional
[20] = test system: Mycobacterium tuberculosis; assay: Antimycobacterial activity against Mycobacterium tuberculosis H37Rv; type: functional
Staphylococcus aureus [21] = assay: Antibacterial activity against methicillin-resistant Staphylococcus aureus H 5996/08 after 24 to 48 hrs by broth microdilution method; type: functional, organism-based
Staphylococcus aureus [22] = assay: Antibacterial activity against Staphylococcus aureus after 24 to 48 hrs by broth microdilution method; type: functional
[23] = Inhibition of Mycobacterium tuberculosis InhA

NNC(=O)c1ccncc1 [ISONIAZID]
log K [1]: -0.743 | MIC [2]: 2.8 µM (≈ 0.384 µg/mL) | MIC (Mycobacterium kansasii): 11 µM | inhibition [3]: Active | Activity [4]: inactive

CCCCCCCCNc1cnc(C(=O)NCc2ccccc2)cn1
log K [1]: 1.312 | MIC [2]: 4.6 µM (≈ 1.57 µg/mL) | MIC (Mycobacterium kansasii): > 100 mg/L | CC50 [5]: 28 µM | MCC [6]: 100 µM | MCC [7]: 100 µM | MCC [8]: 20 µM | CC50 [9]: 62 µM | MCC [10]: ≥ 20 µM | EC50 (Influenza A virus [11]): > 100 µM | MIC (Mycobacterium avium [12]): > 100 mg/L | MIC (Mycobacterium avium [13]): > 100 mg/L | MIC95 (Escherichia coli): > 500 µM | MIC95 (Pseudomonas aeruginosa): > 500 µM | MIC95 (Klebsiella pneumoniae [14]): > 500 µM | MIC95 (Klebsiella pneumoniae [15]): > 500 µM | MIC (Candida albicans): > 500 µM | MIC (Candida tropicalis): > 500 µM | MIC (Pichia kudriavzevii): > 500 µM | MIC (Nakaseomyces glabratus): > 500 µM | MIC (Trichosporon asahii): > 500 µM | MIC (Aspergillus fumigatus): > 500 µM | MIC (Lichtheimia corymbifera): > 500 µM | MIC [16]: > 500 µM | EC50 (Influenza A virus [17]): 1.1 µM | EC50 [18]: 8.9 µM | inhibition [3]: inactive | Ratio [19]: <=20

O=C(NCc1ccccc1)c1cncc(Cl)n1
log K [1]: 0.2 | MIC (Mycobacterium kansasii): 404 µM | MIC (Mycobacterium avium [12]): > 100 mg/L | MIC (Mycobacterium avium [13]): > 100 mg/L | MIC [20]: 50 µM (≈ 12.4 µg/mL)

O=C(NCc1ccccc1)c1cnc(Cl)cn1
log K [1]: 0.186 | MIC (Mycobacterium kansasii): 100 mg/L | MIC (Mycobacterium avium [12]): > 100 mg/L | MIC (Mycobacterium avium [13]): > 100 mg/L | MIC [20]: 100 µM (≈ 24.8 µg/mL)

CCCCCCCNc1cncc(C(=O)NCc2ccccc2)n1
log K [1]: 1.207 | MIC [2]: 10 µM (≈ 3.26 µg/mL) | MIC (Mycobacterium kansasii): 38 µM | CC50 [5]: > 100 µM | MCC [6]: > 100 µM | MCC [7]: > 100 µM | MCC [8]: > 100 µM | CC50 [9]: 2.4 µM | MCC [10]: 4 µM | EC50 (Influenza A virus [11]): > 100 µM | MIC (Mycobacterium avium [12]): > 100 mg/L | MIC (Mycobacterium avium [13]): > 100 mg/L | MIC95 (Escherichia coli): > 500 µM | MIC95 (Pseudomonas aeruginosa): > 500 µM | MIC95 (Klebsiella pneumoniae [14]): > 500 µM | MIC95 (Klebsiella pneumoniae [15]): > 500 µM | Activity (Staphylococcus aureus [21]): inactive | MIC (Candida albicans): > 500 µM | MIC (Candida tropicalis): > 500 µM | MIC (Pichia kudriavzevii): > 500 µM | MIC (Nakaseomyces glabratus): > 500 µM | MIC (Trichosporon asahii): > 500 µM | MIC (Aspergillus fumigatus): > 500 µM | MIC (Lichtheimia corymbifera): > 500 µM | MIC [16]: > 500 µM | EC50 (Influenza A virus [17]): > 100 µM | inhibition [3]: inactive | Ratio [19]: <=20

CCCCCCCCNc1cncc(C(=O)NCc2ccccc2)n1
log K [1]: 1.431 | MIC [2]: 9.2 µM (≈ 3.13 µg/mL) | MIC (Mycobacterium kansasii): 18 µM | CC50 [5]: > 100 µM | MCC [6]: > 100 µM | MCC [7]: > 100 µM | MCC [8]: > 100 µM | CC50 [9]: 1.3 µM | MCC [10]: 4 µM | EC50 (Influenza A virus [11]): > 100 µM | MIC (Mycobacterium avium [12]): > 100 mg/L | MIC (Mycobacterium avium [13]): > 100 mg/L | MIC95 (Escherichia coli): > 500 µM | MIC95 (Pseudomonas aeruginosa): > 500 µM | MIC95 (Klebsiella pneumoniae [14]): > 500 µM | MIC95 (Klebsiella pneumoniae [15]): > 500 µM | Activity (Staphylococcus aureus [21]): inactive | MIC95 (Staphylococcus aureus [22]): 3.9 µM (≈ 1.33 µg/mL) | MIC (Candida albicans): > 500 µM | MIC (Candida tropicalis): > 500 µM | MIC (Pichia kudriavzevii): > 500 µM | MIC (Nakaseomyces glabratus): > 500 µM | MIC (Trichosporon asahii): > 500 µM | MIC (Aspergillus fumigatus): > 500 µM | MIC (Lichtheimia corymbifera): > 500 µM | MIC [16]: > 500 µM | EC50 (Influenza A virus [17]): > 100 µM | Ratio [19]: <=20

CCCCCCCCc1ccc(Oc2ccccc2)c(O)c1
IC50 [23]: 0.005 µM

CCCCCCNc1cnc(C(=O)NCc2ccccc2)cn1
log K [1]: 0.859 | MIC [2]: 10 µM (≈ 3.12 µg/mL) | MIC (Mycobacterium kansasii): > 100 mg/L | CC50 [5]: > 100 µM | MCC [6]: > 100 µM | MCC [7]: > 100 µM | MCC [8]: ≥ 100 µM | CC50 [9]: > 100 µM | MCC [10]: > 100 µM | EC50 (Influenza A virus [11]): 62 µM | MIC (Mycobacterium avium [12]): > 100 mg/L | MIC (Mycobacterium avium [13]): > 100 mg/L | MIC95 (Escherichia coli): > 500 µM | MIC95 (Pseudomonas aeruginosa): > 500 µM | MIC95 (Klebsiella pneumoniae [14]): > 500 µM | MIC95 (Klebsiella pneumoniae [15]): > 500 µM | MIC (Candida albicans): > 500 µM | MIC (Candida tropicalis): > 500 µM | MIC (Pichia kudriavzevii): > 500 µM | MIC (Nakaseomyces glabratus): > 500 µM | MIC (Trichosporon asahii): > 500 µM | MIC (Aspergillus fumigatus): > 500 µM | MIC (Lichtheimia corymbifera): > 500 µM | MIC [16]: > 500 µM | EC50 (Influenza A virus [17]): 52 µM | Ratio [19]: <=20
